# Assay results reported in publication PMC9601137, “Deciphering Cellodextrin and Glucose Uptake in Clostridium thermocellum” (mBio, 2022).
# “Also recorded” adds a separate entry of the source. Like-named read-outs stand apart in the source and are kept apart here.
# How the values were obtained:
# C. thermocellum cells = test: Cell-associated cellulosome (cellulase) activity measurement; assay type: cell-based, Clostridium thermocellum; settings: glucose+cellobiose medium vs glucose medium
# Description: C. thermocellum cells were cultivated to the early exponential stage with various carbon sources. Cell suspensions (1.0 mL) were sampled and centrifuged at 15,000 × g for 10 min to separate supernatant from the pellet. Cell-associated cellulosome activity was measured in a 1.0-mL reaction volume containing the pellet and 15 mg Avicel as the substrate, using GS-2 medium as the reaction buffer. The concentration of reducing sugars was determined by the 3,5-dinitrosalicylic acid method after incubation at 55°C for 24 h unless otherwise stated. One unit of enzyme activity is defined as the amount of enzyme that releases 1 nmol reducing sugar (glucose equivalent) per min.
# CbpB [1] = target: T1, CbpB (Acetivibrio thermocellus (Clostridium thermocellum), UniProt A3DE73, V209A/V350L); test: NMR titration (1H-15N HSQC) of 15N-labelled CbpB with saccharides; assay type: binding; settings: 298 K, pH 6.5, protein:substrate up to 1:20
# Description: (§1) NMR titration experiments were performed at 298 K on a Bruker Avance III 600 MHz NMR spectrometer equipped with a cryoprobe. The ^15N-labeled protein samples contained 0.1 or 0.2 mM sugar-binding protein in 20 mM Bis-Tris (pH 6.5), 100 mM KCl, 0.02% (wt/vol) dextran sulfate sodium, and 90% H2O/10% D2O. The concentrations of carbohydrate substrates were 10, 20, or 100 mM in the same buffer. For the titration, the substrates were gradually added to the labeled proteins until the ratio of their concentrations reached 1:20. A series of two-dimensional ^1H-^15N HSQC spectra were recorded at different protein-substrate ratios during the titration.
# CbpA [2] = target: T2, CbpA (Acetivibrio thermocellus (Clostridium thermocellum), UniProt A3DCF2); test: NMR titration (1H-15N HSQC) of 15N-labelled CbpA with saccharides; assay type: binding; settings: 298 K, pH 6.5, protein:substrate up to 1:20
# Description: as §1
# CbpB [3] = target: T1, CbpB; test: ITC titration of carbohydrate ligands with CbpB; assay type: binding
# Description: (§2) Isothermal titration calorimetry measurements were performed at 30°C using a MicroCal PEAQ-ITC (Malvern Panalytical Ltd., Malvern, United Kingdom). Protein samples were dialyzed against buffer containing 50 mM Tris-HCl (pH 8.0) and 100 mM NaCl. Carbohydrate-ligand solutions of cellodextrins, glucose, and xylose were prepared using the same buffer as for protein dialysis. The sample cell was loaded with 280 μL of protein sample (~50 μM), and the reference cell contained distilled water. The syringe was filled with 50 μL of ligand (500 to 750 μM). Titrations were carried out by adding 0.8 μL of ligand for the first injection and 2 μL for the subsequent 19 injections, with stirring at 750 rpm. Binding parameters were determined by fitting the experimental binding isotherms using a single-site model.
# CbpC = test system: CbpC; set-up: method as in PMID 18952792; settings: cited from earlier work
# CbpA [4] = target: T2, CbpA; test: ITC titration of carbohydrate ligands with CbpA; assay type: binding
# Description: as §2
# Lbp = test system: Lbp; set-up: method as in PMID 18952792; settings: previous study; cited from earlier work
# CbpD [5] = test: NMR titration of 15N-labelled CbpD with saccharides; assay type: binding, Clostridium thermocellum; settings: 298 K
# Description: as §1
# CbpD [6] = test: ITC titration of carbohydrate ligands with CbpD; assay type: binding, Clostridium thermocellum; settings: 30°C
# Description: as §2
# [7] = ITC, 30°C, 50 mM Tris-HCl pH 8.0, 100 mM NaCl, single-site model
# [8] = ITC, 30°C, 50 mM Tris-HCl pH 8.0, 100 mM NaCl, single-site model, read-out: KD (dissociation constant)
# T2 sequence (A3DCF2 entry or part of it): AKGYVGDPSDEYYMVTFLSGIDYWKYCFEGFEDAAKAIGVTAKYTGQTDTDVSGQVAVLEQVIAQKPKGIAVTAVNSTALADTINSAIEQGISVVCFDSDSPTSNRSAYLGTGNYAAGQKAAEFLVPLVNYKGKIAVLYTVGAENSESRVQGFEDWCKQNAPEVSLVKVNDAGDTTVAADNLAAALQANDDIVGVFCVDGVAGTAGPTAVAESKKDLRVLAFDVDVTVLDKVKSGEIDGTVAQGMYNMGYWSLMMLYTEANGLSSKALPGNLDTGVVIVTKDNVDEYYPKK
# T1 sequence (A3DE73 entry or part of it V209A/V350L): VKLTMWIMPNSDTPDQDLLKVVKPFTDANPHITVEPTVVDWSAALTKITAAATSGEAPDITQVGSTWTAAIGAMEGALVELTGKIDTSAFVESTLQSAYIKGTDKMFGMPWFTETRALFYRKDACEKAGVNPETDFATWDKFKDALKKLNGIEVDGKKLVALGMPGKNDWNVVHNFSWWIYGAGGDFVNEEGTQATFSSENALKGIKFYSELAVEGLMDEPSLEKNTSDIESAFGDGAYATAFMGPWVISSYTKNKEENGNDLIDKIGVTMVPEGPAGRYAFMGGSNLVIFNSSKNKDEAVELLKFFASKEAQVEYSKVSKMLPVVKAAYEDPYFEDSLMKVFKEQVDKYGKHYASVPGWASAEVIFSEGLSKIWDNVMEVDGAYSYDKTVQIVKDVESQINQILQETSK
smiles,measurement,setting,value
"O=C[C@H](O)[C@@H](O)[C@H](O[C@@H]1O[C@H](CO)[C@@H](O)[C@H](O)[C@H]1O)[C@H](O)CO [Cellobiose, cellobiose]",induction effect on cellulosome expression (cellulase activity),"C. thermocellum cells; wild-type cells, 5 g/L cellobiose",significant induction effect
same,induction effect on cellulosome expression (cellulase activity),C. thermocellum cells; ΔtransporterB and Δ2554 cells,no induction effect
same,binding to CbpB in NMR titration (HSQC peak shifts),CbpB [1],can bind; also recorded: significant peak shifts
same,binding to CbpA in NMR titration (HSQC peak shifts),CbpA [2],not
same,Kd,CbpB [3],1890 ± 360 nM
same,Ka,"CbpB [3]; ITC, 30°C",5.29 ± 0.99 ×10^5 · M^−1
same,TΔS,"CbpB [3]; ITC, 30°C",4.66 kcal/mol
same,ΔG,"CbpB [3]; ITC, 30°C",-7.93 kcal/mol
same,ΔH (change in enthalpy),"CbpB [3]; ITC, 30°C",-3.27 ± 0.096 kcal/mol
same,N (number of binding site),CbpB [3]; [7],1.03 ± 0.02
"OC[C@H]1O[C@@H](O[C@H]2[C@H](O)[C@@H](O)[C@H](O[C@H]3[C@H](O)[C@@H](O)[C@H](O[C@H]4[C@H](O)[C@@H](O)[C@H](O[C@H]5[C@H](O)[C@@H](O)C(O)O[C@@H]5CO)O[C@@H]4CO)O[C@@H]3CO)O[C@@H]2CO)[C@H](O)[C@@H](O)[C@@H]1O (some centres unmarked) [Cellopentaose, cellopentaose]",Ka,"CbpB [3]; ITC, 30°C",14.9 ± 3.3 ×10^5 · M^−1
same,TΔS,"CbpB [3]; ITC, 30°C",11.3 kcal/mol
same,ΔG,"CbpB [3]; ITC, 30°C",-8.58 kcal/mol
same,ΔH (change in enthalpy),"CbpB [3]; ITC, 30°C",2.75 ± 0.072 kcal/mol
same,N (number of binding site),CbpB [3]; [7],1.02 ± 0.01
same,Kd,CbpB [3]; [8],670 ± 150 nM
"OC[C@H]1O[C@@H](O[C@H]2[C@H](O)[C@@H](O)[C@H](O[C@H]3[C@H](O)[C@@H](O)[C@H](O[C@H]4[C@H](O)[C@@H](O)C(O)O[C@@H]4CO)O[C@@H]3CO)O[C@@H]2CO)[C@H](O)[C@@H](O)[C@@H]1O (some centres unmarked) [Cellotetraose, cellotetraose]",Ka,"CbpB [3]; ITC, 30°C",17.8 ± 2.5 ×10^5 · M^−1
same,TΔS,"CbpB [3]; ITC, 30°C",10.3 kcal/mol
same,"interaction with CbpB in ITC, in words","CbpB [3]; ITC, 30°C",highest binding affinity
same,ΔG,"CbpB [3]; ITC, 30°C",-8.68 kcal/mol
same,ΔH (change in enthalpy),"CbpB [3]; ITC, 30°C",1.66 ± 0.0263 kcal/mol
same,N (number of binding site),CbpB [3]; [7],1.02 ± 0.08
same,Kd,"CbpB [3]; ITC, 30°C, 50 mM Tris-HCl pH 8.0, 100 mM NaCl, single-site model, listed as cellotetraose, read-out: KD (dissociation constant)",562 nM
same,Kd,CbpB [3]; [8],560 ± 80 nM
"OC[C@H]1O[C@@H](O[C@H]2[C@H](O)[C@@H](O)[C@H](O[C@H]3[C@H](O)[C@@H](O)C(O)O[C@@H]3CO)O[C@@H]2CO)[C@H](O)[C@@H](O)[C@@H]1O (some centres unmarked) [Cellotriose, cellotriose]",binding to CbpB in NMR titration (HSQC peak shifts),CbpB [1],significant peak shifts
same,binding to CbpA in NMR titration (HSQC peak shifts),CbpA [2],not
same,Ka,"CbpB [3]; ITC, 30°C",8.55 ± 1.69 ×10^5 · M^−1
same,TΔS,"CbpB [3]; ITC, 30°C",10.7 kcal/mol
same,ΔG,"CbpB [3]; ITC, 30°C",-8.25 kcal/mol
same,ΔH (change in enthalpy),"CbpB [3]; ITC, 30°C",2.49 ± 0.072 kcal/mol
same,N (number of binding site),CbpB [3]; [7],0.97 ± 0.02
same,Kd,CbpB [3]; [8],1170 ± 230 nM
"OC[C@H]1OC(O)[C@H](O)[C@@H](O)[C@@H]1O (some centres unmarked) [Glucose, glucose]",binding to CbpC in previous ITC experiments,CbpC,can bind
same,binding to CbpB in NMR titration (HSQC peak shifts),CbpB [1],not
same,binding to CbpA in NMR titration (HSQC peak shifts),CbpA [2],binds; also recorded: significant peak shifts
same,Kd,CbpA [4],240000 ± 95000 nM
same,"binding to CbpA in ITC, in words",CbpA [4]; ITC,remarkably weak
same,Ka,"CbpA [4]; ITC, 30°C",0.042 ± 0.016 ×10^5 · M^−1
same,TΔS,"CbpA [4]; ITC, 30°C",5.43 kcal/mol
same,ΔG,"CbpA [4]; ITC, 30°C",-5.02 kcal/mol
same,ΔH (change in enthalpy),"CbpA [4]; ITC, 30°C",0.409 ± 0.086 kcal/mol
same,N (number of binding site),CbpA [4]; [7],1.06 ± 0.07
same,"interaction with CbpB in ITC, in words","CbpB [3]; ITC, 30°C",could not be fitted to obtain reasonable N and KD values
"OC[C@H]1O[C@@H](O[C@H]2[C@H](O)[C@@H](CO)OC(O)[C@@H]2O)[C@H](O)[C@@H](O)[C@@H]1O (some centres unmarked) [Laminaribiose, laminaribiose]",binding to Lbp in ITC assays,Lbp,shown to bind
same,Ka,"CbpB [3]; ITC, 30°C",0.93 ± 0.25 ×10^5 · M^−1
same,TΔS,"CbpB [3]; ITC, 30°C",7.98 kcal/mol
same,"interaction with CbpB in ITC, in words","CbpB [3]; ITC, 30°C",lower affinity compared to cellobiose
same,ΔG,"CbpB [3]; ITC, 30°C",-6.91 kcal/mol
same,ΔH (change in enthalpy),"CbpB [3]; ITC, 30°C",1.09 ± 0.1 kcal/mol
same,N (number of binding site),CbpB [3]; [7],0.98 ± 0.04
same,Kd,CbpB [3]; [8],10700 ± 2800 nM
O=C[C@H](O)[C@@H](O)[C@H](O)CO [xylose],interaction with CbpD in NMR titration,CbpD [5],could not detect any xylose-binding ability
same,interaction with CbpD in ITC,CbpD [6],could not detect any xylose-binding ability
